The values that follow come from patent US4883814A, “1-aryloxy-3-(substituted alkylamino)-2-propanols and use as β-blocker” (Merck & Co., Inc., priority 1988, dated 1989).

Assay [1] has as its target T1, β1 -receptor (Cavia porcellus, UniProt H0W3H1).
T1 construct: isolated guinea pig atrial preparations; from tissue; host or cells: isolated guinea pig atria
The assay can be described thus: inhibition of the positive chronotropic actions of isoproterenol in isolated guinea pig atrial preparations. The conditions noted are these: isolated guinea pig atria; vs isoproterenol positive chronotropic action; read-out: pA2 values β1 (atria) (converted). How it is done:
(§1) The in vitro β-adrenergic blocking properties of the novel compounds of this invention were evaluated in accordance with standard procedures. The interaction with the β1 -receptor was determined via inhibition of the positive chronotropic actions of isoproterenol in isolated guinea pig atrial preparations. β2 potency was determined by using isolated guinea pig tracheal chains contracted with PGF2α and by measuring inhibition of isoproterenol-induced relaxation.

In assay [2] the test system is β1 -receptor. The assay is described as above. Conditions: β1 (atria) versus β2 (trachea), from pA2 values. The protocol:
as §1

Another assay has as its target T2, β2 (Cavia porcellus, UniProt Q8K4Z4).
T2 construct: isolated guinea pig tracheal chains; from tissue; host or cells: isolated guinea pig tracheal chains
The assay can be described thus: inhibition of isoproterenol-induced relaxation in isolated guinea pig tracheal chains contracted with PGF2α. The conditions noted are these: vs isoproterenol-induced relaxation, read-out: pA2 values β2 (trachea) (converted). How it is done:
as §1

T1 sequence (H0W3H1 1-470): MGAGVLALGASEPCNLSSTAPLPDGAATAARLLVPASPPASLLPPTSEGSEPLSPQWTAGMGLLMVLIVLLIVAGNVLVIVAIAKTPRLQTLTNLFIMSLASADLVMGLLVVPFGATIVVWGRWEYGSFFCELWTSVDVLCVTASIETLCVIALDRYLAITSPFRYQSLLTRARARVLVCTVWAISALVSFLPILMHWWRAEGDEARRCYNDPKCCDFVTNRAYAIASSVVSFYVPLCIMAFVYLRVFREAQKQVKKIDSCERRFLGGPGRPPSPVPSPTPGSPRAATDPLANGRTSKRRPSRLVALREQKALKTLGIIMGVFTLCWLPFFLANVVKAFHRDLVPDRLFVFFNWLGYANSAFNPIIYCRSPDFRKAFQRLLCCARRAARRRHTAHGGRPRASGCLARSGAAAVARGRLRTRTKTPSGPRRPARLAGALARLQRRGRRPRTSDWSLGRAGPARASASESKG
T2 sequence (Q8K4Z4 whole entry): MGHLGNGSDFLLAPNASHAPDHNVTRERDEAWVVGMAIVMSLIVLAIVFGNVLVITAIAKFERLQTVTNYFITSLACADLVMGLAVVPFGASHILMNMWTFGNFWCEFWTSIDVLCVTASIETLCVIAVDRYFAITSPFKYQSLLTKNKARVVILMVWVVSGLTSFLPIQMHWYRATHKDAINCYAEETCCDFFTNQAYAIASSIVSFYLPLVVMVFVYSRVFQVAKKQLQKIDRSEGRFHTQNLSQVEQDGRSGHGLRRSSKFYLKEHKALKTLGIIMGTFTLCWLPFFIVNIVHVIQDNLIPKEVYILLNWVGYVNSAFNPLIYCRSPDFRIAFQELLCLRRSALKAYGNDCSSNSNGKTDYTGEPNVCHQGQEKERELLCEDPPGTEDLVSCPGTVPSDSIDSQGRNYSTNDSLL

With `N#Cc1ccccc1OCC(O)CNCCN1CCNCC1` (stereo not shown), the Kb is 34.7 nM at β1 -receptor [1] and 34700 nM on β2. Besides, the Cardioselectivity ratio with β1 -receptor [2] is 1000.
As to `N#Cc1ccccc1OCC(O)CNCCc1ccncc1` (stereo not shown), the Cardioselectivity ratio with β1 -receptor [2] was determined as 4.1.
`N#Cc1ccccc1OCC(O)CNCCc1cccnc1` (stereo not shown): the results for the Kb at β1 -receptor [1] and at β2 were 15.5 nM and 89.1 nM, respectively. Moreover, the Cardioselectivity ratio in the assay with β1 -receptor [2] turned out to be 5.8.
For `N#Cc1ccccc1OCC(O)CNCCc1ccccn1` (stereo not shown), the Kb at β1 -receptor [1] was 25.7 nM; on β2, 64.6 nM. In addition, in the assay on β1 -receptor [2], the Cardioselectivity ratio stood at 2.5.
On to `N#Cc1ccccc1OCC(O)CNCCN1CCOCC1` (stereo not shown), for which the Kb on β1 -receptor [1] was 23.4 nM; on β2, 138 nM. In addition, the Cardioselectivity ratio in the assay on β1 -receptor [2] was 5.9.
